# Experimental data taken from patent US20230233569A1 (Revolution Medicines, Inc., priority 2020, published 2023).
# Read-outs that look alike come from different tables or passages of the source.
# What was measured:
# Capan-1 (K-Ras G12V) = test: CellTiter-Glo cell viability assay, 5-day treatment; type: cell-based; settings: Homo sapiens, CAPAN-1, 120 h, 5-day treatment; read-out: Capan-1 Cell Viability assay data (K-Ras G12V, IC50)
# Method in brief: (§1)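 Viability is read as luminescence on day 5 after direct compound addition to plated cells, following about 30 minutes' room-temperature equilibration. Each signal is scaled to mean DMSO as 100%.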
# NCI-H358 (K-Ras G12C) = test: as above; type: cell-based; settings: Homo sapiens, NCI-H358, 120 h, 5-day treatment; read-out: H358 Cell Viability assay data (K-Ras G12C, IC50)
# Method in brief: as §1
# KRAS G12C = KRAS G12C (Homo sapiens, UniProt P01116+P62937, G12C); test: Disruption of BRAF RBD interaction with Ras (FRET / MOA assay, with Cyclophilin A); type: biochemical
# Method in brief: (§2)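 TR-FRET: nucleotide-loaded K-Ras mutant or WT with Cyclophilin A and BRAF RBD, compound 10-point 3-fold from 30 μM final, 3 h at 25° C, then anti-His Eu (10 nM) and anti-GST APC (50 nM) for 1.5 h. Decreased FRET ratio versus DMSO gives IC50.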
# KRAS G12D = KRAS G12D (Homo sapiens, UniProt P01116+P62937, G12D); test: as above; type: biochemical
# Method in brief: as §2
# KRAS G12S = KRAS G12S (Homo sapiens, UniProt P01116+P62937, G12S); test: as above; type: biochemical
# Method in brief: as §2
# KRAS G12V = KRAS G12V (Homo sapiens, UniProt P01116+P62937, G12V); test: as above; type: biochemical
# Method in brief: as §2
# KRAS G13C = KRAS G13C (Homo sapiens, UniProt P01116+P62937, G13C); test: as above; type: biochemical
# Method in brief: as §2
# KRAS G13D = KRAS G13D (Homo sapiens, UniProt P01116+P62937, G13D); test: as above; type: biochemical
# Method in brief: as §2
# KRAS WT = KRAS WT (Homo sapiens, UniProt P01116+P62937); test: as above; type: biochemical
# Method in brief: as §2
# NRAS G12C = NRAS G12C (Homo sapiens, UniProt P01111+P62937, G12C); test: as above; type: biochemical
# KRAS Q61H = KRAS Q61H (Homo sapiens, UniProt P01116+P62937, Q61H); test: as above; type: biochemical; settings: KRAS Q61H; read-out: KRAS Q61H FRET data IC50
# Method in brief: (§3)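 IC50 reflects compound-driven Ras:Cyclophilin A ternary complex displacing BRAF RBD, read as lowered TR-FRET ratio relative to DMSO after Eu anti-His (10 nM) and APC anti-GST (50 nM) detection for 1.5 h. Prior incubation 3 h, 25° C, with 12.5 nM GMPPNP-loaded Ras, 50 nM BRAF RBD, 25 μM Cyclophilin A; top compound 30 μM.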
# NRAS Q61K = NRAS Q61K (Homo sapiens, UniProt P01111+P62937, Q61K); test: as above; type: biochemical; settings: NRAS Q61K; read-out: NRAS Q61K FRET data IC50
# Method in brief: as §3
# NRAS Q61R = NRAS Q61R (Homo sapiens, UniProt P01111+P62937, Q61R); test: as above; type: biochemical; settings: NRAS Q61R; read-out: NRAS Q61R FRET data IC50
# Method in brief: as §3
# NRAS WT = NRAS WT (Homo sapiens, UniProt P01111+P62937); test: as above; type: biochemical; settings: NRAS WT; read-out: NRAS WT FRET data IC50
# Method in brief: as §3
# [1] = read-out: KRAS G12C FRET data, IC50
# [2] = read-out: KRAS G12D FRET data, IC50
# [3] = read-out: KRAS G12S FRET data, IC50
# [4] = KRAS G12V, read-out: KRAS G12V FRET data IC50
# [5] = read-out: KRAS G13C FRET data, IC50
# [6] = KRAS G13D, read-out: KRAS G13D FRET data IC50
# [7] = KRAS WT, read-out: KRAS WT FRET data IC50
# [8] = NRAS G12C, read-out: NRAS G12C FRET data IC50
# Chain of NRAS G12C (P01111 whole entry G12C): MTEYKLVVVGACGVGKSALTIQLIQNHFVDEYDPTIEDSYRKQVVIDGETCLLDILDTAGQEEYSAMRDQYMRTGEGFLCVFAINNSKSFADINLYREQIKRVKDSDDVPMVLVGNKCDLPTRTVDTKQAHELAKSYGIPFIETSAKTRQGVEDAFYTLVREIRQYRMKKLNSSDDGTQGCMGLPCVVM
# Chain of NRAS G12C (P62937 whole entry): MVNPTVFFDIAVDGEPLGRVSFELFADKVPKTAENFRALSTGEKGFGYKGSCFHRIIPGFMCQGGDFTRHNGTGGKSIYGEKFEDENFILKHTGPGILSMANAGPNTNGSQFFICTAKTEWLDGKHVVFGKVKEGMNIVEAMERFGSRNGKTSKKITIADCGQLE
# Chain of KRAS G12V (P01116 1-169 isoform P01116-2 G12V limits assumed): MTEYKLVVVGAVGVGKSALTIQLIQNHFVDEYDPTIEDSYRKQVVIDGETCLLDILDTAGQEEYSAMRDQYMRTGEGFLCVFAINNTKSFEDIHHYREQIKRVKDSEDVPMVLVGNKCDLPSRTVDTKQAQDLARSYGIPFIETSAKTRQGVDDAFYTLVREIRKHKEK
# Chain of KRAS G12V (P62937 whole entry): as the sequence (P62937 whole entry) above
# Chain of KRAS WT (P01116 1-169 isoform P01116-2 limits assumed): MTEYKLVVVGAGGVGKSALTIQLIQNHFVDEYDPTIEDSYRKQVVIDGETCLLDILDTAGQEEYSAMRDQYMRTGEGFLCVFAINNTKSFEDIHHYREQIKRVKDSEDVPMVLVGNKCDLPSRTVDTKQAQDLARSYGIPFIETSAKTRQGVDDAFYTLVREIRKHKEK
# Chain of KRAS WT (P62937 whole entry): as the sequence (P62937 whole entry) above
# Chain of KRAS G13C (P01116 1-169 isoform P01116-2 G13C): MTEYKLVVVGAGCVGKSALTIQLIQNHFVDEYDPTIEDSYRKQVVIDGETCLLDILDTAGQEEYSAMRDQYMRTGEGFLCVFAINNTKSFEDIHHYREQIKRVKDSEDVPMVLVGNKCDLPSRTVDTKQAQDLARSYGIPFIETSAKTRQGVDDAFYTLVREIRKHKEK
# Chain of KRAS G13C (P62937 whole entry): as the sequence (P62937 whole entry) above
# Chain of KRAS G12D (P01116 1-169 isoform P01116-2 G12D limits assumed): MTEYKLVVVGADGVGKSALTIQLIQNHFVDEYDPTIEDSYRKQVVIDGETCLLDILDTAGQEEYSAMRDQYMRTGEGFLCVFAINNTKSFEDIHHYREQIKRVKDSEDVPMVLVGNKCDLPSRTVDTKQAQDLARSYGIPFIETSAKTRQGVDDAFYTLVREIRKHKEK
# Chain of KRAS G12D (P62937 whole entry): as the sequence (P62937 whole entry) above
# Chain of KRAS G12S (P01116 1-169 isoform P01116-2 G12S limits assumed): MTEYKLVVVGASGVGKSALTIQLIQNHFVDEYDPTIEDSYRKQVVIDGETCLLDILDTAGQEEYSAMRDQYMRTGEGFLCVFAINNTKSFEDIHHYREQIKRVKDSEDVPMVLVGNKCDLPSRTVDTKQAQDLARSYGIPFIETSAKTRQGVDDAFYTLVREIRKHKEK
# Chain of KRAS G12S (P62937 whole entry): as the sequence (P62937 whole entry) above
# Chain of NRAS Q61R (P01111 whole entry Q61R): as the sequence (P01111 whole entry G12C) above, with C12G, Q61R counted along it
# Chain of NRAS Q61R (P62937 whole entry): as the sequence (P62937 whole entry) above
# Chain of KRAS G12C (P01116 1-169 isoform P01116-2 G12C): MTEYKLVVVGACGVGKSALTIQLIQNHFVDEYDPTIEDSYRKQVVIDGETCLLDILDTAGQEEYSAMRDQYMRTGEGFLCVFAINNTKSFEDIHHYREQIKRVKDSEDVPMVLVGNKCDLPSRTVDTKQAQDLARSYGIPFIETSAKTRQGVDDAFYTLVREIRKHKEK
# Chain of KRAS G12C (P62937 whole entry): as the sequence (P62937 whole entry) above
# Chain of KRAS G13D (P01116 1-169 isoform P01116-2 G13D limits assumed): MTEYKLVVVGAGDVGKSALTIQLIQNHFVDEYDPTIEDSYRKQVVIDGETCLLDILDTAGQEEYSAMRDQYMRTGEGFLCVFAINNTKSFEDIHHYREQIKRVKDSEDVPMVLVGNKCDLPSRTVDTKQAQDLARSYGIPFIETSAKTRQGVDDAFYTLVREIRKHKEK
# Chain of KRAS G13D (P62937 whole entry): as the sequence (P62937 whole entry) above
# Chain of NRAS Q61K (P01111 whole entry Q61K): as the sequence (P01111 whole entry G12C) above, with C12G, Q61K counted along it
# Chain of NRAS Q61K (P62937 whole entry): as the sequence (P62937 whole entry) above
# Chain of NRAS WT (P01111 whole entry): as the sequence (P01111 whole entry G12C) above, with C12G counted along it
# Chain of NRAS WT (P62937 whole entry): as the sequence (P62937 whole entry) above
# Chain of KRAS Q61H (P01116 1-169 isoform P01116-2 Q61H limits assumed): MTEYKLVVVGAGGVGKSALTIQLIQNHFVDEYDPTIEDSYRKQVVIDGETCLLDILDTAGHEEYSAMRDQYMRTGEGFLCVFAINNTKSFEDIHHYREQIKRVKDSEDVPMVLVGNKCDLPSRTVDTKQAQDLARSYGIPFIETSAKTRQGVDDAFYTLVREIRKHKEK
# Chain of KRAS Q61H (P62937 whole entry): as the sequence (P62937 whole entry) above
Structure (SMILES),IC50 (NCI-H358 (K-Ras G12C)) [nM],IC50 (KRAS Q61H) [nM],IC50 (NRAS Q61K) [nM],IC50 (NRAS Q61R) [nM],IC50 (NRAS WT) [nM],IC50 (KRAS G12C; [1]) [nM],IC50 (KRAS G12D; [2]) [nM],IC50 (KRAS G12S; [3]) [nM],IC50 (KRAS G12V; [4]) [nM],IC50 (KRAS G13C; [5]) [nM],IC50 (KRAS G13D; [6]) [nM],IC50 (KRAS WT; [7]) [nM],IC50 (NRAS G12C; [8]) [nM],IC50 (Capan-1 (K-Ras G12V)) [nM],other results
CCn1c(-c2cccnc2[C@H](C)OC)c2c3cc(ccc31)-c1csc(n1)C[C@H](NC(=O)[C@H](C(C)C)N(C)C(=O)N1CCOC[C@@H]1CN(C)C)C(=O)N1CCC[C@H](N1)C(=O)OCC(C)(C)C2 [Example A572],100 to 1000,100 to 1000,1000 to 10000,1000 to 10000,1000 to 10000,–,–,–,–,–,–,–,–,1000 to 10000,"IC50 (KRAS G12C; KRAS G12C FRET data, IC50): 1000 to 10000 nM; IC50 (KRAS G12D; KRAS G12D FRET data, IC50): 1000 to 10000 nM; IC50 (KRAS G12S; KRAS G12S FRET data, IC50): 1000 to 10000 nM; IC50 (KRAS G12V; KRAS G12V FRET data IC50, KRAS G12V): 1000 to 10000 nM; IC50 (KRAS G13C; KRAS G13C FRET data, IC50): 1000 to 10000 nM; IC50 (KRAS G13D; KRAS G13D FRET data IC50, KRAS G13D): 1000 to 10000 nM; IC50 (KRAS WT; KRAS WT FRET data IC50, KRAS WT): 1000 to 10000 nM; IC50 (NRAS G12C; NRAS G12C FRET data IC50, NRAS G12C): 1000 to 10000 nM"
"CCn1c(-c2cccnc2[C@H](C)OC)c2c3cc(ccc31)-c1csc(n1)C[C@H](NC(=O)[C@H](C(C)C)N(C)C(=O)N1CC(OC)C1)C(=O)N1CC[C@H](C)[C@H](N1)C(=O)OCC(C)(C)C2 [Example A579, N-((2S)-1-(((6^3S,6^4S,4S,Z)-1^1-ethyl-1^2-(2-((S)-1-methoxyethyl)pyridin-3-yl)-6^4,10,10-trimethyl-5,7-dioxo-6^1,6^2,6^3,6^4,6^5,6^6-hexahydro-1^1H-8-oxa-2(4,2)-thiazola-1(5,3)-indola-6(1,3)-pyridazinacycloundecaphane-4-yl)amino)-3-methyl-1-oxobutan-2-yl)-3-methoxy-N-methylazetidine-1-carboxamide]",100 to 1000,100 to 1000,100 to 1000,100 to 1000,100 to 1000,100 to 1000,1000 to 10000,1000 to 10000,100 to 1000,100 to 1000,1000 to 10000,100 to 1000,100 to 1000,100 to 1000,–
CCn1c(-c2cccnc2[C@H](C)OC)c2c3cc(ccc31)-c1csc(n1)C[C@H](NC(=O)[C@H](C(C)C)N(C)C(=O)N1CCOC[C@@H]1c1ccccc1)C(=O)N1CCC[C@H](N1)C(=O)OCC(C)(C)C2 [Example A604],100 to 1000,100 to 1000,100 to 1000,1000 to 10000,1000 to 10000,1000 to 10000,1000 to 10000,1000 to 10000,1000 to 10000,1000 to 10000,1000 to 10000,1000 to 10000,1000 to 10000,1000 to 10000,–
CCn1c(-c2cccnc2[C@H](C)OC)c2c3cc(ccc31)-c1csc(n1)C[C@H](NC(=O)[C@H](C(C)C)N(C)C(=O)N1[C@@H](C)CN(C)C[C@@H]1C)C(=O)N1CCC[C@H](N1)C(=O)OCC(C)(C)C2 [Example A609],1000 to 10000,100 to 1000,100 to 1000,100 to 1000,1000 to 10000,1000 to 10000,1000 to 10000,1000 to 10000,1000 to 10000,1000 to 10000,1000 to 10000,1000 to 10000,100 to 1000,100 to 1000,–
CCn1c(-c2cccnc2[C@H](C)OC)c2c3cc(ccc31)-c1csc(n1)C[C@H](NC(=O)[C@H](C(C)C)N(C)C(=O)N1[C@H](C)CN(C)C[C@H]1C)C(=O)N1CCC[C@H](N1)C(=O)OCC(C)(C)C2 [Example A610],100 to 1000,10 to 100,100 to 1000,100 to 1000,100 to 1000,100 to 1000,100 to 1000,100 to 1000,100 to 1000,100 to 1000,100 to 1000,100 to 1000,100 to 1000,100 to 1000,–
CCn1c(-c2cccnc2[C@H](C)OC)c2c3cc(cnc31)-c1csc(n1)C[C@H](NC(=O)[C@H](C(C)C)N(C)C(=O)N1CC(OC)C1)C(=O)N1CCC[C@H](N1)C(=O)OCC(C)(C)C2 [Example A612],100 to 1000,100 to 1000,100 to 1000,1000 to 10000,100 to 1000,100 to 1000,1000 to 10000,1000 to 10000,1000 to 10000,1000 to 10000,1000 to 10000,1000 to 10000,100 to 1000,100 to 1000,–

# Further lines, with some results ahead:
IC50 (NCI-H358 (K-Ras G12C)) [nM],IC50 (KRAS Q61H) [nM],IC50 (NRAS Q61K) [nM],IC50 (NRAS Q61R) [nM],IC50 (NRAS WT) [nM],IC50 (KRAS G12C; [1]) [nM],IC50 (KRAS G12D; [2]) [nM],IC50 (KRAS G12S; [3]) [nM],IC50 (KRAS G12V; [4]) [nM],IC50 (KRAS G13C; [5]) [nM],IC50 (KRAS G13D; [6]) [nM],IC50 (KRAS WT; [7]) [nM],IC50 (NRAS G12C; [8]) [nM],Structure (SMILES),IC50 (Capan-1 (K-Ras G12V)) [nM],other results
10 to 100,10 to 100,10 to 100,100 to 1000,10 to 100,10 to 100,100 to 1000,100 to 1000,100 to 1000,100 to 1000,100 to 1000,10 to 100,10 to 100,CCn1c(-c2cccnc2[C@H](C)OC)c2c3cc(ccc31)-c1csc(n1)C[C@H](NC(=O)[C@H](C(C)C)N(C)C(=O)N1CCC[C@@H](CN(C)C)C1)C(=O)N1CCC[C@H](N1)C(=O)OCC(C)(C)C2 [Example A574],10 to 100,–
10 to 100,100 to 1000,100 to 1000,100 to 1000,100 to 1000,100 to 1000,100 to 1000,100 to 1000,1000 to 10000,100 to 1000,100 to 1000,100 to 1000,100 to 1000,CCn1c(-c2cccnc2[C@H](C)OC)c2c3cc(ccc31)-c1csc(n1)C[C@H](NC(=O)[C@H](C(C)C)N(C)C(=O)N(C)[C@@H]1CCCN(C)C1)C(=O)N1CCC[C@H](N1)C(=O)OCC(C)(C)C2 [Example A587],10 to 100,–
10 to 100,100 to 1000,100 to 1000,100 to 1000,100 to 1000,100 to 1000,100 to 1000,100 to 1000,100 to 1000,100 to 1000,100 to 1000,100 to 1000,100 to 1000,CCn1c(-c2cccnc2[C@H](C)OC)c2c3cc(ccc31)-c1csc(n1)C[C@H](NC(=O)[C@H](C(C)C)N(C)C(=O)N1CC[C@H](N(C)C)C1)C(=O)N1CCC[C@H](N1)C(=O)OCC(C)(C)C2 [Example A603],10 to 100,–
